# Data: US20230160018A1, “CRYBETAB2 PREDICTS POOR BREAST CANCER OUTCOME AND SENSITIZES TUMORS TO NUCLEOLIN AND CDK INHIBITION” (The Johns Hopkins University, priority 2020, published 2023)
# System: MCF10AT1-vector tumors
# Test: MCF10AT1-vector (CRYβB2-lacking) xenograft tumor growth in NSG mice
# Format: in vivo
# Details: palbociclib 50 mg/kg oral, 5 days/week, 2 weeks; tumors lack CRYβB2 expression
smiles,measurement,value
CC(=O)c1c(C)c2cnc(Nc3ccc(N4CCNCC4)cn3)nc2n(C2CCCC2)c1=O [palbociclib],tumor size,no effect
